Experimental data reported in patent US11684603B2, “Neuraminidase inhibition to improve glycocalyx volume and function to ameliorate cardiovascular diseases in pathologies associated with glycocalyx damage” (priority 2017, dated 2023).

Tests used:
glycocalyx = conditions: patients with familial hypercholesterolemia, short term treatment; cited from earlier work
isolated aortas = assay: Atomic force microscopy of aortic endothelial stiffness in treated db/db mice; type: in vivo; conditions: 5 mg twice a day via inhalation for 5 days, vs vehicle
From the text: (§1) Data represent mean+/−SEM, *P<0.05, determined by two-tailed Student t test.

human endothelial cells = assay: Wheat Germ Agglutinin (WGA) staining of the glycocalyx of cultured human endothelial cells; type: cell-based; conditions: neuraminidase plus Zanamivir for 1 hour
femoral arteries [1] = assay: Vasodilation of pre-constricted femoral arteries from treated db/db mice to insulin, acetylcholine or sodium nitroprusside; type: in vivo; conditions: 5 mg twice a day via inhalation for 5 days, vs vehicle cohort
From the text: In a separate set of experiments, vessels were pre-constricted and exposed to increasing concentrations of insulin (FIG. 8C) or endothelium-dependent vasodilator, acetylcholine (FIG. 8D). […] Data represent mean+/−SEM, *P<0.05, determined by two-tailed Student t test.
as §1

femoral arteries [2] = assay: Flow mediated dilation in isolated femoral arteries from treated db/db mice; type: in vivo; conditions: 5 mg twice a day via inhalation for 5 days, vs placebo control; increasing shear stress
From the text: Vessels were pre-constricted with phenylephrine and exposed to increasing shear stress (dynes/cm^2) to assess flow mediated dilation. […] Data represent mean+/−SEM, *P<0.05, determined by two-tailed Student t test.

Compound | glycocalyx volume (glycocalyx) | plasma hyaluronidase activity (glycocalyx) | aortic endothelial stiffness (isolated aortas) | effect on the neuraminidase-induced reduction in WGA staining (human endothelial cells) | endothelial dependent vasodilatory response to acetylcholine (femoral arteries [1]; increasing concentrations of acetylcholine) | endothelial dependent vasodilatory response to insulin (femoral arteries [1]; increasing concentrations of insulin) | flow mediated dilation (femoral arteries [2])
CC(C)c1nc(N(C)S(C)(=O)=O)nc(-c2ccc(F)cc2)c1/C=C/[C@@H](O)C[C@@H](O)CC(=O)O [Rosuvastatin] | partially restored glycocalyx volume | increase in plasma hyaluronidase activity |  |  |  |  | 
CC(=O)NC1C(NC(=N)N)C=C(C(=O)O)OC1C(O)C(O)CO (stereo not shown) [Zanamivir, 5-acetamido-4-guanidino-6-(1,2,3-trihydroxypropyl)-5,6-dihydro-4H-pyran-2-carboxylic acid] |  |  | significant reduction | attenuated | greater | greater | significantly improved
